{"source": "patent US6599913B1", "about": "“Treating allergic and inflammatory conditions” (Schering Corporation, priority 2001, dated 2003)", "key": {"[1]": {"test": "Treatment of chronic idiopathic urticaria", "conditions": "oral administration"}, "[2]": {"test": "Double-blinded randomized clinical trials in seasonal allergic rhinitis", "procedure": "Efficacy endpoints in all the studies were Total Symptom Score, Total Nasal Symptom Score, Total Non-nasal Symptom Score, and Health Quality of Life (HQOL) analysis in efficacy trials. […] This parameter measures the total symptom relief by the patient after 24 hours before taking the next day dose."}, "P-gp": {"target": "P-gp (UniProt P21448)", "conditions": "ATP hydrolysis", "experimental": "The invention will be further described by reference to the following study.\nA direct functional assay was performed with […] as described previously. Ibid. The consumption of ATP was determined by the liberated inorganic orthophosphate, which forms a color complex with molybdate.\nIf a compound is a substrate of P-gp the hydrolysis of ATP is required as the driving force. As ATP is consumed at a purported rate of about one or two per transport event, the hydrolysis of ATP represents transport rate or activity assay of function. […] Any change in the rate of ATP hydrolysis represents the sum of the basal activity and the contribution of the exogenous substrate to ATP hydrolysis."}, "human OATP1": {"target": "T1, human OATP1 (Homo sapiens, UniProt P46721)", "T1 sequence (P46721 1-670)": "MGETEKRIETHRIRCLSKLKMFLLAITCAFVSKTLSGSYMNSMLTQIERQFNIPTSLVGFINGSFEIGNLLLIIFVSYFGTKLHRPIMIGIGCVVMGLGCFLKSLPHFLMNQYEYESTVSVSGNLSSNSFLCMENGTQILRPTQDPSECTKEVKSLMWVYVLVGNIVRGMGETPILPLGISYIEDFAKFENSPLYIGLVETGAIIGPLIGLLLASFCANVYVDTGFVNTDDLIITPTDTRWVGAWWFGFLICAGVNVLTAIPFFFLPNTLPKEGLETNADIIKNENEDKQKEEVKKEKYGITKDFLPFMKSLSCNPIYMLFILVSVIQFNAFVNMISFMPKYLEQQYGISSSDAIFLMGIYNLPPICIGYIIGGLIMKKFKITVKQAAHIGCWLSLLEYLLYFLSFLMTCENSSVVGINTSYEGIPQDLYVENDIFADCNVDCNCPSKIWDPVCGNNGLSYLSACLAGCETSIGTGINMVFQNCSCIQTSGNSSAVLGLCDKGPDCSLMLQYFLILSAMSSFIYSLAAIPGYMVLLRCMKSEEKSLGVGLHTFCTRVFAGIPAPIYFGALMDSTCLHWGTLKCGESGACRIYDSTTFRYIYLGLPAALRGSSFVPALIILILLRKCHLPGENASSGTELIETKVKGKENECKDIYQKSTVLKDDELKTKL", "conditions": "at 10 μM; cited from earlier work"}, "rat OATP1": {"target": "T2, rat OATP1 (Rattus norvegicus, UniProt P46720)", "T2 sequence (P46720 1-670)": "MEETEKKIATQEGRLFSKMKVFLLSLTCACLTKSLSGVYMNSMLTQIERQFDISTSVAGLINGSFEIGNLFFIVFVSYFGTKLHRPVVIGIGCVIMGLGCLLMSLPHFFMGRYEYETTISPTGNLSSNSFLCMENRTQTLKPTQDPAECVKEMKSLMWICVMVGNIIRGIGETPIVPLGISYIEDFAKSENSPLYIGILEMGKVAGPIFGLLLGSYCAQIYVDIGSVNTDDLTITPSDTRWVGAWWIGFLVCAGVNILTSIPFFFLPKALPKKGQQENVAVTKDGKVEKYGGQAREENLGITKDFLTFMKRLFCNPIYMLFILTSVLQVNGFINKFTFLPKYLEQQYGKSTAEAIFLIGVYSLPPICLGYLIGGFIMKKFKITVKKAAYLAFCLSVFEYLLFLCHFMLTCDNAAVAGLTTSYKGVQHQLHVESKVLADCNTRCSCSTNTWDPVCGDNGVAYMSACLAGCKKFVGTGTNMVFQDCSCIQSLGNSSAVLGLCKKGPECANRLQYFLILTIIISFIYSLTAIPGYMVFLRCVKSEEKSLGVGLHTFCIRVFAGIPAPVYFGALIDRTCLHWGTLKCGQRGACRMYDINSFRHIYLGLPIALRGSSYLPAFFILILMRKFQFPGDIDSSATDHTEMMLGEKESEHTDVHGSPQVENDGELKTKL", "conditions": "cited from earlier work"}, "human OATP": {"target": "T3, human OATP (Homo sapiens, UniProt P46721)", "T3 sequence (P46721 1-670)": "T1 sequence (P46721 1-670)", "conditions": "cited from earlier work"}}, "data": [{"molecule": "Clc1ccc2c(c1)CCc1cccnc1C2=C1CCNCC1", "note": "[desloratadine]", "values": [{"measurement": "Severity of pruritis, number of hives, size of largest hive, total symptom score", "setting": "[1]", "value": "significantly reduced"}, {"measurement": "Reduction of nasal symptoms versus placebo", "setting": "[2]; 5 mg", "value": "significantly (p<0.01) more effective than placebo"}, {"measurement": "Total symptom scores", "setting": "[2]; 5 mg once daily", "value": "significantly reduced"}, {"measurement": "AM NOW total symptom score", "setting": "[2]; full 24 hour dosing interval, 5 mg to 20 mg", "value": "Statistically significant (p<0.05) reductions"}]}, {"molecule": "CCOC(=O)N1CCC(=C2c3ccc(Cl)cc3CCc3cccnc32)CC1", "note": "[loratadine]", "values": [{"measurement": "Vmax above basal activity", "setting": "P-gp; FIG. 3", "value": "≈ 200%"}, {"measurement": "Vmax as % of basal (control) activity", "setting": "P-gp; without H33342", "value": "about 200%"}]}, {"molecule": "CC[C@H](C)C(=O)O[C@H]1C[C@@H](C)C=C2C=C[C@H](C)[C@H](CC[C@@H]3C[C@@H](O)CC(=O)O3)[C@H]21", "note": "[lovastatin]", "values": [{"measurement": "Inhibition of human OATP1", "setting": "human OATP1", "value": "effectively inhibits"}, {"measurement": "Inhibition of rat OATP1", "setting": "rat OATP1; at 50 μM", "value": "effectively inhibit"}, {"measurement": "Inhibition of fexofenadine uptake", "setting": "human OATP", "value": "significant inhibition"}]}, {"molecule": "CC(C)c1nc(CN(C)C(=O)N[C@H](C(=O)N[C@@H](Cc2ccccc2)C[C@H](O)[C@H](Cc2ccccc2)NC(=O)OCc2cncs2)C(C)C)cs1", "note": "[ritonavir]", "values": [{"measurement": "Inhibition of human OATP1", "setting": "human OATP1", "value": "effectively inhibit"}, {"measurement": "Inhibition of fexofenadine uptake", "setting": "human OATP", "value": "significant inhibition"}]}, {"molecule": "CC(C)(C)NC(=O)[C@@H]1C[C@@H]2CCCC[C@@H]2CN1C[C@@H](O)[C@H](Cc1ccccc1)NC(=O)[C@H](CC(N)=O)NC(=O)c1ccc2ccccc2n1", "note": "[saquinavir]", "values": [{"measurement": "Inhibition of human OATP1", "setting": "human OATP1", "value": "effectively inhibit"}, {"measurement": "Inhibition of fexofenadine uptake", "setting": "human OATP", "value": "significant inhibition"}]}, {"molecule": "APD-ajmalinium", "values": [{"measurement": "Transport by rat OATP", "setting": "rat OATP1", "value": "transports"}]}]}
